Measurements taken from patent US20190282498A1, “FREEZE-DRIED PROBIOTIC FOODSTUFFS” (IMAGILIN TECHNOLOGY, LLC, priority 2018, published 2019).

System: E. coli
Test: Survival of E. coli with amoxicillin (comparison, data not shown)
Format: cell-based
Settings: 500 μg/ml of amoxicillin
Experimental: In order to determine whether freeze-drying interfered with this antibiotic compatibility, Pediococcus probiotic freeze-dried products were exposed amoxicillin at 10 μg/ml, 50 μg/ml, 100 μg/ml, and 500 μg/ml, and incubated at 45° C. for […] to see if any survival of Pediococcus acidilactici NRRL B-50517. […] For comparison, E. coli had 0% survival at 500 μg/ml of amoxicillin (data not shown).

How did the “survival of E. coli” value turn out when CC1(C)S[C@@H]2[C@H](NC(=O)[C@H](N)c3ccc(O)cc3)C(=O)N2[C@H]1C(=O)O [amoxicillin] was run?
Its value is 0%.
